The source of these data is article PMC8617627, “Novel DYRK1A Inhibitor Rescues Learning and Memory Deficits in a Mouse Model of Down Syndrome” (Pharmaceuticals, 2021).

Holding throughout (assay): Kinase profile (33P ATP filter binding)
Common to all, as to type: biochemical

The target in one assay is T1, LKB1 (Homo sapiens, UniProt Q15831).
T1 sequence (Q15831 1-433): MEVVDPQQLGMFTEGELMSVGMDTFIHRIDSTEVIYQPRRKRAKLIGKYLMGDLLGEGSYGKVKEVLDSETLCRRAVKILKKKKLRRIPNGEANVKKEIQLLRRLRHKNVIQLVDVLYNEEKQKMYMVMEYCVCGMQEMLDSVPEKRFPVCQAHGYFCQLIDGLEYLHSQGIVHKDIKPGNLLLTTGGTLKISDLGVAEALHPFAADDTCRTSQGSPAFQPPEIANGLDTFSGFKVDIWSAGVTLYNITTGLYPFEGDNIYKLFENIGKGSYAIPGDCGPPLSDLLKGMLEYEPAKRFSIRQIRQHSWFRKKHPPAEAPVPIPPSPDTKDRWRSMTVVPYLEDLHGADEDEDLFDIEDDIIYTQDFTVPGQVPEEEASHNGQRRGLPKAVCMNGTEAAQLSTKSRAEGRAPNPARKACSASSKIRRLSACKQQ
T1 sequence (Q7RTN6 1-431 partner): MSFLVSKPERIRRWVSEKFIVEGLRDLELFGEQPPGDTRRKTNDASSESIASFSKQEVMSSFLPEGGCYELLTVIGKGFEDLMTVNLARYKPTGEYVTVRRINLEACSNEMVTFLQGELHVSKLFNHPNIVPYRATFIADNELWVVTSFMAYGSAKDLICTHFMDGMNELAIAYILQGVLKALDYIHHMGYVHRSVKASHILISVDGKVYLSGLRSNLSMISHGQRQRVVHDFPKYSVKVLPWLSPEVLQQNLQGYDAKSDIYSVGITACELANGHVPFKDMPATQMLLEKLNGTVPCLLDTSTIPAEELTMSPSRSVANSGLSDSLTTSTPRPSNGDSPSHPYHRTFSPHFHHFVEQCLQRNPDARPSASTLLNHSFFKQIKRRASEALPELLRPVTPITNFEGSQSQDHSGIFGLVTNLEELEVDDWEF
T1 sequence (Q9Y376 1-341 partner): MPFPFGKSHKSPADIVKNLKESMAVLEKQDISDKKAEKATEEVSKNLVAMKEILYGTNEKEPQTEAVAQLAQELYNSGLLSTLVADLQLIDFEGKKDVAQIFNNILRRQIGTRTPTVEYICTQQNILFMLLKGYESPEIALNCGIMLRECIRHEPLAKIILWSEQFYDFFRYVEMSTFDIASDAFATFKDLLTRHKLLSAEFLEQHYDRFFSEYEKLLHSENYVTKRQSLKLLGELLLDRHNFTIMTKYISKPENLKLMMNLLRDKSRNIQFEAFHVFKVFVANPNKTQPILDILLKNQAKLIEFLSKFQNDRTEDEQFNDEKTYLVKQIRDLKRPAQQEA
The following applies: read-out: Remaining protein kinase activity.

Another assay deals with TTBK2 (Homo sapiens, UniProt Q6IQ55).
The target in the next assay is SIK3 (Homo sapiens, UniProt Q9Y2K2).
A further assay concerns the target T2, ULK2 (Homo sapiens, UniProt Q8IYT8).
T2 sequence (Q8IYT8 1-1036): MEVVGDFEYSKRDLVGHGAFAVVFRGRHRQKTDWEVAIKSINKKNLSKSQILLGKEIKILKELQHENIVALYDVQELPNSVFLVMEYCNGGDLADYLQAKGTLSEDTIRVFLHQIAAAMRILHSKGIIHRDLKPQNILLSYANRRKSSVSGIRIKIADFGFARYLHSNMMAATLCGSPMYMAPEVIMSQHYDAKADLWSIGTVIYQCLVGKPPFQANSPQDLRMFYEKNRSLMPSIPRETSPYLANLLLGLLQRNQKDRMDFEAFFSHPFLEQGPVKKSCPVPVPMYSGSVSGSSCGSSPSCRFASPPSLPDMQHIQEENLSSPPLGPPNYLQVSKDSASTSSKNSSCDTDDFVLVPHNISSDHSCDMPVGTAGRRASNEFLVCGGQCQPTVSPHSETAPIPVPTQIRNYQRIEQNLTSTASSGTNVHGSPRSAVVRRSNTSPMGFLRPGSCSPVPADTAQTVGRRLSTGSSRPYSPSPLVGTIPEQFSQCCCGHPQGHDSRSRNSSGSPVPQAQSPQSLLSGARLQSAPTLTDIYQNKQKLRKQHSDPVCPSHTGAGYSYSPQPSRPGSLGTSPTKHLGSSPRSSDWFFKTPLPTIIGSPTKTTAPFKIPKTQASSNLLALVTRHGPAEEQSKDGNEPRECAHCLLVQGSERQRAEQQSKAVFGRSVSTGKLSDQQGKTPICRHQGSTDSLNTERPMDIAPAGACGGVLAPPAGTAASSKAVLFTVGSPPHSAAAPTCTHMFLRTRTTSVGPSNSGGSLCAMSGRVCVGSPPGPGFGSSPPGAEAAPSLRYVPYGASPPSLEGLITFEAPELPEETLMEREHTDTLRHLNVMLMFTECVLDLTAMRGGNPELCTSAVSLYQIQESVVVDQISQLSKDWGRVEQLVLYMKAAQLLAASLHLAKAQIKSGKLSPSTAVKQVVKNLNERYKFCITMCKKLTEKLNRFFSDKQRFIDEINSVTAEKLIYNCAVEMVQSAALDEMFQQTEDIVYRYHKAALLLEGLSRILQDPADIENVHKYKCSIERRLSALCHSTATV
The following applies: read-out: Remaining protein kinase activity.

The target in the next assay is HIPK3 (Homo sapiens, UniProt Q9H422). The conditions noted are these: read-out: Remaining protein kinase activity.

Where two headings read alike, the source gives them in different places.

As a reminder, the remaining activity is the signal under treatment as a percentage of the control signal.

HIPK3, sequence (Q9H422 whole entry): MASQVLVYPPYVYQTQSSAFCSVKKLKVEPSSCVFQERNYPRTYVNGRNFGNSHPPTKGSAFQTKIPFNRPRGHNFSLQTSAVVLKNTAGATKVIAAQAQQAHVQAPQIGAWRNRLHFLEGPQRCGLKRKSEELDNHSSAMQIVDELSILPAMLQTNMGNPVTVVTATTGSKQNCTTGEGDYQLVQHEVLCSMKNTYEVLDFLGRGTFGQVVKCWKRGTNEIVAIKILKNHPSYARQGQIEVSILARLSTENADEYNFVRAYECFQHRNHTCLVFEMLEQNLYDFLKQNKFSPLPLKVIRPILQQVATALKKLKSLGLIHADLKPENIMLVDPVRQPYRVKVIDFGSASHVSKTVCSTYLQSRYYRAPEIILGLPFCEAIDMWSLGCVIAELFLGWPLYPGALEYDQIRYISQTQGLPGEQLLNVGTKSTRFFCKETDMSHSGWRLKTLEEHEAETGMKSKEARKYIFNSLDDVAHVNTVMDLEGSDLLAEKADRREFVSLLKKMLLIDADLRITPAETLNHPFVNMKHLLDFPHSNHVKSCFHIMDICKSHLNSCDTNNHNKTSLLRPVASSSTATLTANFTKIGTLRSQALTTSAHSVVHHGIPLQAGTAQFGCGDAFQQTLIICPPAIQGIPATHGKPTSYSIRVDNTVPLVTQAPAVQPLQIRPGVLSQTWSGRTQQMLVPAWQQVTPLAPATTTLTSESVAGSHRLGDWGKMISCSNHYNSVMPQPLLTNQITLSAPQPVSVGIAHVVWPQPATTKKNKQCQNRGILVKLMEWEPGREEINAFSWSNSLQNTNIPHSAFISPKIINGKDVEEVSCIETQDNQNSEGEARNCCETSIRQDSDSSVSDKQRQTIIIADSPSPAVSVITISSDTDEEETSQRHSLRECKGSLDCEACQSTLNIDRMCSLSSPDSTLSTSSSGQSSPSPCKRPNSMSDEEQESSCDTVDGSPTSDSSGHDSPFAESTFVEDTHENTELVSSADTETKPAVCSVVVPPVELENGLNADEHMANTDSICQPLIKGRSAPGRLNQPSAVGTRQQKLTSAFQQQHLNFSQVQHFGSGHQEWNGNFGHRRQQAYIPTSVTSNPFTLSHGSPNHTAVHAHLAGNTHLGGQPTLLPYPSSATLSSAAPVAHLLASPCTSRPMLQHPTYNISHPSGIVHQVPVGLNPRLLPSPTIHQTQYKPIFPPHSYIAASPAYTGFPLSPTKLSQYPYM
SIK3, sequence (Q9Y2K2 whole entry): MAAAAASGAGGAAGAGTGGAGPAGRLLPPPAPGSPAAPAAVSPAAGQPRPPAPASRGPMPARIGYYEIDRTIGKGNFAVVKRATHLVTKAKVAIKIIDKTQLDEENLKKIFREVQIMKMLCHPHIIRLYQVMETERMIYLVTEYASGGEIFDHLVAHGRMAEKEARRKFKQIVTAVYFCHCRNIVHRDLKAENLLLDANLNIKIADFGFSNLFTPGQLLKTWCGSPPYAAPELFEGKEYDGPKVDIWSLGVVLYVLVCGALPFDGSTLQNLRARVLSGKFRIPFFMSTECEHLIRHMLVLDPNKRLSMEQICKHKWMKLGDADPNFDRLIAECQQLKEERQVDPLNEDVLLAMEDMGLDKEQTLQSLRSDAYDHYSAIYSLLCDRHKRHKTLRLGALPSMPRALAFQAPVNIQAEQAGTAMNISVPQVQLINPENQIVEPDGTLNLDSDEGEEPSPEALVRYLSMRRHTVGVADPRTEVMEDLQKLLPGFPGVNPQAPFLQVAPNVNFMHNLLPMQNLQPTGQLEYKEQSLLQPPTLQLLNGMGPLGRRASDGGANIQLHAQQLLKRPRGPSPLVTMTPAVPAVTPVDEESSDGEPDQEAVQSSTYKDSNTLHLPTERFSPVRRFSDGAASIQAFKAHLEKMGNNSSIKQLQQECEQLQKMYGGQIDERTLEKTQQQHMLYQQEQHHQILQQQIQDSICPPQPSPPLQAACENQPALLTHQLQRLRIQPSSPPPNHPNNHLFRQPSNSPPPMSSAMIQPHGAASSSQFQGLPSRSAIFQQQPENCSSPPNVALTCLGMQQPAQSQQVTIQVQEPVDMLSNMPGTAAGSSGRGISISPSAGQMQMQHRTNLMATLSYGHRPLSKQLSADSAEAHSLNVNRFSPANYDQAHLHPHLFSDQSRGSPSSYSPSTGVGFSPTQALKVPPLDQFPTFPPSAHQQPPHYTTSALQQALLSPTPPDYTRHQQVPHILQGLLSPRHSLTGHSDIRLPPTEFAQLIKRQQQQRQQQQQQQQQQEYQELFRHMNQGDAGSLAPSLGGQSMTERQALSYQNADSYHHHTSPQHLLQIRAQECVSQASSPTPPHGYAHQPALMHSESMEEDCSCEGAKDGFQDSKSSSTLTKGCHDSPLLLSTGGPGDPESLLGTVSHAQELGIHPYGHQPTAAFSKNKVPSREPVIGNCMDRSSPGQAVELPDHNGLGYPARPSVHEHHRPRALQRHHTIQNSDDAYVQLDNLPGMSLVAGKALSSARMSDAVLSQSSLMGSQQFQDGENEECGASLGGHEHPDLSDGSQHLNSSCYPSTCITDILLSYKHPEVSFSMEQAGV
TTBK2, sequence (Q6IQ55 whole entry): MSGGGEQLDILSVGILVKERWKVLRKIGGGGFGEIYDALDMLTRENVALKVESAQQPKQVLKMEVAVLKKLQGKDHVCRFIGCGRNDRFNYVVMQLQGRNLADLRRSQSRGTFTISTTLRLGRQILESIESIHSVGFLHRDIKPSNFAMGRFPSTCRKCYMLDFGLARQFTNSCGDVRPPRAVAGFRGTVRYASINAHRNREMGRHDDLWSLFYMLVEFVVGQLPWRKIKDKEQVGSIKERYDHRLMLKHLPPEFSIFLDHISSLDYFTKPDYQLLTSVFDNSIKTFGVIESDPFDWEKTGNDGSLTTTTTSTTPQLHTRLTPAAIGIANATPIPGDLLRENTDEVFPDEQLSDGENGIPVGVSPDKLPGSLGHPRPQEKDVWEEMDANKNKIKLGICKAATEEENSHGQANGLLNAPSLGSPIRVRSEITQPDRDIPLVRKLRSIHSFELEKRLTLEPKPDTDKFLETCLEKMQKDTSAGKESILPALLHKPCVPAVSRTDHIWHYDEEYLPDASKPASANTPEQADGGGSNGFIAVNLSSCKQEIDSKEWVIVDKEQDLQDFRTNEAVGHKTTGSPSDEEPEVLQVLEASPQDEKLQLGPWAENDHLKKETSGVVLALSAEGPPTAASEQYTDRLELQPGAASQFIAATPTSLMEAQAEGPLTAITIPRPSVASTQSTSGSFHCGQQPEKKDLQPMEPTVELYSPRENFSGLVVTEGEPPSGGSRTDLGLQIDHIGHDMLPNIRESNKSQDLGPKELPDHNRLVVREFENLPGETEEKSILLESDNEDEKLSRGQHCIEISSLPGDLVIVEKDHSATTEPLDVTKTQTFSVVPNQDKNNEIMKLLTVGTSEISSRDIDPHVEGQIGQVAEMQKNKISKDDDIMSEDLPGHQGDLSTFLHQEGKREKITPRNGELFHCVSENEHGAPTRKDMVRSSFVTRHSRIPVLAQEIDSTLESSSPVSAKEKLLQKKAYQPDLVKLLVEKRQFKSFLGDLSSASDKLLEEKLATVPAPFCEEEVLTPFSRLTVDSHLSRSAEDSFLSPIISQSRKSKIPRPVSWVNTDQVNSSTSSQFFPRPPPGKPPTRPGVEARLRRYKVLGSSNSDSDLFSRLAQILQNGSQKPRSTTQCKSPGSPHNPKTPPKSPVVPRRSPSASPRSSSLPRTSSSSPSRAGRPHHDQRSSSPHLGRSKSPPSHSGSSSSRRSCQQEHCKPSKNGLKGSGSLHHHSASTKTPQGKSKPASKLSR

On to `COc1ccc2sc(-c3cncc(NC(C)=O)c3)nc2c1` [PST-001, N-(5-(5-Methoxybenzo[d]thiazol-2-yl)pyridin-3-yl)acetamide], for which the remaining activity at 1 µM amounted to 123% at LKB1, 111% at ULK2 and 123% on HIPK3. For the same compound, the results for the remaining activity at 100 µM at LKB1, at ULK2 and at HIPK3 were 150%, 119% and 100%, respectively. For the same compound, the “Remaining protein kinase activity” value at TTBK2 (1 μM) is on record as 119%; at TTBK2 (100 μM) it was 117%; on SIK3 (1 μM), 114%; at SIK3 (100 μM), 78%.
For `COc1ccc2sc(-c3cncc(N)c3)nc2c1` [compound 1, 5-(5-Methoxybenzo[d]thiazol-2-yl)pyridin-3-amine], the remaining activity at 1 µM on LKB1 (LKB1, 1 μM) stood at 109%; on ULK2 (ULK2, 1 μM), 101%; on HIPK3 (HIPK3, 1 μM), 120%. Moreover, the remaining activity at 100 µM was determined as 161% on LKB1 (LKB1, 100 μM); 50% on ULK2 (ULK2, 100 μM); 28% on HIPK3 (HIPK3, 100 μM). The “Remaining protein kinase activity” value at TTBK2 (1 μM) came out at 123%; on TTBK2 (100 μM), 103%; on SIK3 (1 μM), 106%; at SIK3 (100 μM), 19%.
